Test [1] concerns TRPA1. The experiment in a line: Whole cell voltage-clamp, TRPA1 CHO cells. The format is cell-based. Particulars: MG 0.5 mM (Fig. 1B). The method, then: (§1) DRG neurons and TRPA1 CHO cells were studied under voltage-clamp conditions using an Axopatch 200B amplifier and pClamp 10.0 software (Molecular Devices, Sunnyvale, CA). Except where stated otherwise, whole cell recordings were performed at a holding potential of –60 mV using an extracellular solution with the composition described above for [Ca^2+]i measurements. Borosilicate glass pipettes (2–5 MΩ, 75–80% series resistance compensation) were filled with (in mM) 140 KCl, 1 CaCl2, 2 MgATP, 10 EGTA, and 10 HEPES buffered to pH 7.4 (KOH). Excised inside-out patches were recorded using a Ca^2+-free solution containing (in mM) 140 NaCl, 5 KCl, 1 MgCl2, 10 HEPES and 1 EGTA, pH 7.4 (NaOH) in the pipettes and perfused with 140 KCl, 2 MgATP, 1 EGTA, and 10 HEPES (pH 7.4). DRG neurons were studied using an intracellular solution containing (in mM) 140 CsCl, 1 CaCl2, 2 MgATP, 10 EGTA and 10 HEPES, pH 7.4 (CsOH). Drugs were applied by local microperfusion with a rapid solution changer (RSC-200, Biologic, Claix, France).

Test [2] has as its system MDCK cells. The experiment in a line: [Ca2+]i-measurements in MDCK cells. The format is cell-based, Canine. The method, then: MDCK cells were grown in DMEM (Invitrogen) supplemented with 5% fetal bovine serum, 100 U/ml penicillin and 100 µg/ml streptomycin. […] The experiments were performed in a physiological saline solution containing (in mM) 140 NaCl, 5 KCl, 10 glucose, 10 HEPES, 2 CaCl2, and 1 MgCl2, buffered to pH 7.4 with NaOH. Compounds were applied to cells by local continuous microperfusion of solution through a fine tube placed in close proximity of the cells studied. […] Analyses of emission intensity ratios at 340 nm/380 nm excitation (R, in individual cells) were performed using the ImageMaster suite of software. […] Cells grown in 96 well black walled plates (Costar, Tewksbury, MA) were loaded with Fura 2-AM in the presence of 1 mM probenecid at 37°C for 1–1.5 hours and assays were carried out at 25°C. Basal emission ratios (340 nm/380 nm) were measured and changes in ratio determined at various times after compound addition.

Test [3] deals with DRG neurons. Nature of the test: [Ca2+]i-responses in cultured DRG neurons. It is filed as cell-based, mice. As to the method: (§2) DRG neurons were prepared from adult male or female mice using methods described previously. Isolated neurons were maintained in MEM AQ (5.6 mM glucose) supplemented with 10% fetal bovine serum, 100 U/ml penicillin, 100 µg/ml streptomycin and 50 ng/ml NGF (Promega, Southampton, UK) for less than 24 hours before experimentation.
(§3) Cells were loaded with 2 µM Fura-2 AM (Molecular Probes, Paisley, UK) in the presence of 1 mM probenecid for ∼1 hr. The experiments were performed in a physiological saline solution containing (in mM) 140 NaCl, 5 KCl, 10 glucose, 10 HEPES, 2 CaCl2, and 1 MgCl2, buffered to pH 7.4 with NaOH. Compounds were applied to cells by local continuous microperfusion of solution through a fine tube placed in close proximity of the cells studied. Images of a group of cells were captured every 2 sec using 340 and 380 nm excitation wavelengths with emission measured at 520 nm with a microscope based imaging system (PTI, New Jersey). Analyses of emission intensity ratios at 340 nm/380 nm excitation (R, in individual cells) were performed using the ImageMaster suite of software.

In test [4] the test system is DRG neurons. The experiment in a line: Voltage clamp recordings of DRG neurons. Particulars: -60 mV, 15 µM Ca2+, a proportion of neurons. It is filed as cell-based, mice. The method, then:
as §2, §1

For test [5], the target named is T1, mTRPA1 K712Q (Mus musculus, UniProt Q8BLA8, K712Q).
T1 construct: expressed in transfected cells; host or cells: CHO cells
T1 sequence (Q8BLA8 whole entry K712Q): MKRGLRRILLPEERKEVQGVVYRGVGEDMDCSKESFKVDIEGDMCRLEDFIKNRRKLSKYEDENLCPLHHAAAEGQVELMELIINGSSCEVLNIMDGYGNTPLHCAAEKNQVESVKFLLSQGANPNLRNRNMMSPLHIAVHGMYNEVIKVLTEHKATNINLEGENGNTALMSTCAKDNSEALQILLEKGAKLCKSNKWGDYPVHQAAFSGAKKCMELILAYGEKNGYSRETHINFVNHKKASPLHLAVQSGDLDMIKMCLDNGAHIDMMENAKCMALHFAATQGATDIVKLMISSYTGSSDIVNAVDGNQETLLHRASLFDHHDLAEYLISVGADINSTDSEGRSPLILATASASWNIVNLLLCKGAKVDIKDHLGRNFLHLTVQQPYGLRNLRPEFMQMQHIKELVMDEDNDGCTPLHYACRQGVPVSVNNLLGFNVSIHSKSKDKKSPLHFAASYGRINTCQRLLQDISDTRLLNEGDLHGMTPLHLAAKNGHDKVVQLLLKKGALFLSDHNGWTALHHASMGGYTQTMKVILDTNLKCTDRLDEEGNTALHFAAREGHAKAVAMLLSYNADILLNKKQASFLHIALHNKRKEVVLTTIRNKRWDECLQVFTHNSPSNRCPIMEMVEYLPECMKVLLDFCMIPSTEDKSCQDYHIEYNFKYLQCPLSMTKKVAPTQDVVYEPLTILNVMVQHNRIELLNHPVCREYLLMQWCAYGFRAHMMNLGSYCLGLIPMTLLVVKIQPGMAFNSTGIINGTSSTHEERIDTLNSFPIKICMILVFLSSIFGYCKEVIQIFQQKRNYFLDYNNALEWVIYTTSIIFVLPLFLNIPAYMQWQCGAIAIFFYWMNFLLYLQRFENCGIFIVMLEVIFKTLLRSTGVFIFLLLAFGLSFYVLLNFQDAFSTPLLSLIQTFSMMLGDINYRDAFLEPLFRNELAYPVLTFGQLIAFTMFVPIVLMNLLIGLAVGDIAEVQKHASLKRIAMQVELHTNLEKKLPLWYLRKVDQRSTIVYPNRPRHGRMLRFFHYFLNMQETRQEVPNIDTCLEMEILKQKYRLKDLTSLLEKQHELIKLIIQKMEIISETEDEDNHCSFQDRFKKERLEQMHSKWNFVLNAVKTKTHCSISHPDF
The experiment in a line: [Ca2+]i-responses of mTRPA1 K712Q in CHO cells. The format is cell-based. Particulars: MG 2 mM. The method, then: Untransfected CHO cells and CHO cells expressing mouse or human TRPA1 were grown in MEM Glutamax or AQ medium supplemented with penicillin (100 U/ml), streptomycin (100 µg/ml), and FCS (10%). Plasmids encoding mutated TRPA1 channels were kindly provided by Dr. Ardem Patapoutian. All media, serum and antibiotics were from Invitrogen (Paisley, UK) or Sigma (Poole, UK).
as §3

Test [6] relates to TRPA1. The experiment in a line: Outward TRPA1 currents in absence of Ca2+, effect of DTT. Particulars: MG 1 mM, +60 mV, Ca2+-free. The format is cell-based. As to the method: as §1
It is possible that MG stimulates TRPA1 through formation of reversible hemithioacetals with cysteine residues other than those examined here, [40]. To investigate this possibility we examined the effect of the reducing agent dithiothreitol (DTT, 2 mM) on outward TRPA1 currents recorded in the absence of Ca^2+ (5 mM BAPTA intracellularly, 1 mM EGTA extracellularly) to avoid Ca^2+-mediated inactivation or desensitization. We used DTT to determine whether disulfide bridge formation or reversible noncovalent interactions contribute to the agonist activity of MG. DTT is expected to rapidly reduce cystine bridges to free thiols, but also to form hemithioacetals with MG, thereby accelerating current decay. Covalent modification of arginine and lysine residues by MG and modification of cysteine residues by AITC are on the other hand resistant to DTT [31]. […] This is consistent with the expected oxidative formation of cystine bridges and their reduction by DTT [4]. The contrast between the stable currents produced by H2O2 and the spontaneously reversible currents evoked by MG highlights the reversible nature of the interaction between MG and TRPA1. […] We also observed that repeated applications of MG and H2O2 evoked reproducible current responses of similar amplitudes, whereas an application of AITC prevented subsequent channel activation by AITC challenges (Fig. 4C-E). We conclude that MG acts through a reversible interaction with TRPA1 and that H2O2 relies on DTT sensitive oxidative modification of TRPA1 protein for its activity. […] In contrast, the covalent modification produced by AITC appears irreversible and renders TRPA1 refractory to subsequent activation.

The test system of test [7] is Trpa1+/+ and Trpa1-/- mice. The experiment in a line: Intraplantar injection, pain-related behaviors. It is filed as in vivo. Particulars: intraplantar 250 nmoles/paw. The method, then:
Data shown are from male and female homozygote Trpa1^− ^/− and Trpa1 ^+/+. The Trpa1-null mice and wild-type littermates were bred from heterozygotic mice provided by Drs. Kelvin Kwan and David Corey (Harvard Medical School, Boston, MA).
Methylglyoxal (250 nmoles in 25 µl saline) was injected subcutaneously into the plantar surface of one of the hind paws using a 50 µl luer-syringe (Hamilton Co.) fitted with a 26-gauge x 3/8 inch intradermal needle. Immediately after injection, mice were placed inside a Perspex chamber and the duration of the pain-related behaviors (licking and biting or flinching and shaking of the injected paw) recorded using a digital stop-watch. Total pain response times over the first 2 minutes were used for analysis as the pain behaviors were largely confined to this period. The glyoxalase 1 inhibitor Sr-p-Bromobenzylglutathione cyclopentyl diester (50 mg/kg) was dissolved in 2% DMSO/20% Tween 80 in saline and administered by intraperitoneal (i.p.) injection (5 ml/kg).

The structures appear in SMILES notation.

On to `CC(=O)C=O` [MG, methylglyoxal], for which the whole cell current result in test [1] is on record as “produced inward currents”. The “[Ca2+]i-influx response” value in test [2] (5 mM) was “evoked [Ca^2+]i-influx responses”. The EC50 (as a rule, the concentration needed to bring the measured effect to its halfway point) in test [2] (read-out: EC50, [Ca2+]i-responses) is 2200 ± 400 µM. The “capsaicin-sensitive DRG neurons with [Ca2+]i-responses” value in test [3] (neurons from Trpa1+/+ mice (240 of 333)) came to 72%. For the same compound, the “DRG neurons with [Ca2+]i-responses” value in test [3] (neurons from Trpa1-/- mice (1 of 322)) worked out at 0%. In addition, the “current in DRG neurons” value in test [4] is given as “evoked robust inward currents”. Moreover, the “amplitude of [Ca2+]i-responses in mTRPA1 K712Q compared to WT mTRPA1” value in test [5] was “significantly reduced”. For the same compound, in test [6], the “effect of DTT (2 mM) on agonist-evoked TRPA1 current” value is on record as “dramatically accelerated the TRPA1 current decay” and the “outward TRPA1 current after removal of agonist” value is on record as “partially decayed with time after removal of MG”. Moreover, the “pain-related behaviors during 2 min after injection” value in test [7] is on record as “induced a significant nociceptive response”.

The values above are taken from article PMC3805573, “Methylglyoxal Evokes Pain by Stimulating TRPA1” (PLoS ONE, 2013).
